Laboratory results: ChEMBL document CHEMBL1157539, “Thousands of chemical starting points for antimalarial lead identification” (Nature, 2010)

Tested on: Plasmodium falciparum
Test: GSK_TCMDC: Inhibition of Plasmodium falciparum 3D7 in whole erythrocytes, using parasite LDH activity as an index of growth.
Assay type: functional, organism-based
Settings: not given

| Structure (SMILES) | XC50 [nM] |
| --- | --- |
| S=C(NCCc1ccc(Cl)cc1)NC1CCC(CN2CCC(c3c[nH]c4ccccc34)CC2)CC1 (configuration not stated) | 703 |

Same assay, conditions: Plasmodium falciparum, 3D7

| Structure (SMILES) | XC50 [nM] |
| --- | --- |
| CNCCN(C)C(=O)Oc1c(Cl)c(C)nc(C)c1-c1ccc(Oc2ccc(OC(F)(F)F)cc2)cc1 | 127 |
| COc1cccc(C(=O)NC(NC(=S)Nc2ccc(OC)cc2[N+](=O)[O-])C(Cl)(Cl)Cl)c1 (configuration not stated) | 758 |
| CS(=O)(=O)n1c(CN2CCN(c3ncc(C(F)(F)F)cc3Cl)CC2)nc2ccccc21 | 1060 |
| Oc1ccc2[nH]c(-c3cccc(F)c3)nc2c1CN1CCCC1 | 795 |
| COc1ccc2nccc([C@@H](O)CN3CCC(NC(=O)c4ccc(-c5ccc(C#N)cc5)cc4)CC3)c2c1 | 164 |
| COC(=O)c1cccc(C#CCCOCCCCCCNC[C@H](O)c2cc(Cl)c(N)c(Cl)c2)c1 | 771 |
| O=C(/C=C/c1ccc(Cl)c(Cl)c1)NCCC1CCC(N2CCC(c3c[nH]c4ccc(O)cc34)CC2)CC1 (configuration not stated) | 762 |
| O=C(/C=C/c1ccc(Cl)c(Cl)c1)NCCCCCN1CCC(NC(=O)Nc2cccc(Cl)c2)CC1 | 754 |
| c1ccc(COc2ccc(Cn3ccc(-c4ccc(-n5ccnc5)cc4)n3)cc2)cc1.c1ccc(COc2ccc(Cn3nccc3-c3ccc(-n4ccnc4)cc3)cc2)cc1 | 1020 |
| COc1ccc2nccc([C@@H](O)CN3CCC(NC(=O)C(c4cc5ccccc5o4)N4CCN(c5ccccc5OC)CC4)CC3)c2c1 (some centres not stated) | 308 |
| O=C(NCc1cccc(C(F)(F)F)c1)c1ccc(-c2nc3cc(F)c(F)cc3[nH]2)cc1 | 776 |
| Cc1cc(N[C@@H](Cc2ccccc2)C(=O)NCCOc2ccccc2)nc(NCCc2cccs2)n1 | 997 |
| COc1ccc(-c2cccc(NC(=O)c3cccc(Cl)c3)c2)cc1CN1CCNCC1 | 803 |
| O=C(NC1CCCCN(Cc2ccccc2O)C1)c1ccc(-c2ccccc2)cc1 (configuration not stated) | 759 |
| COCCn1c(-c2cccc(Cl)c2)nn(-c2ccc([N+](=O)[O-])cc2C#N)c1=S | 178 |
| CO/C(=C\C=C\c1cc2cc(Cl)c(Cl)cc2[nH]1)C(=O)NC1CC2CCCC(C1)N2C (configuration not stated) | 1000 |
| O=C(Nc1ccc(-c2cccc(-c3nc4ccccc4[nH]3)c2)cc1)Nc1ccc(F)c(F)c1F | 182 |
| COc1cccc(-c2csc(C(=O)NC3CCCCN(Cc4ccc(C(C)(C)C)cc4)C3)c2)c1 (configuration not stated) | 887 |
| O=C(NCCN1CCCCC1)c1cc2cc(-c3ccccc3)ccc2n1S(=O)(=O)c1ccccc1 | 1120 |
| COC(=O)c1cc(C(=O)CN(Cc2ccccc2)C(C)C)ccc1O | 183 |
| O=C(Nc1cc(Cl)ccc1O)c1ccc(Oc2ccc(C(=O)Nc3cc(Cl)ccc3O)cc2)cc1 | 920 |
| CC1(C)N=C(N)N=C(N)N1c1ccc([N+](=O)[O-])cc1 | 234 |
| CS(=O)(=O)Nc1ccc2[nH]cc(C3CCN(CC4CCC(NC(=O)/C=C/c5ccccc5Cl)CC4)CC3)c2c1 (configuration not stated) | 793 |
| CC1CN(Cc2ccc(-c3ccc(-c4nc5cc(F)ccc5[nH]4)s3)cc2)CC(C)O1 (configuration not stated) | 876 |

| Structure (SMILES) | XC50 [nM] |
| --- | --- |
| Cc1cc(N[C@@H](CC(C)C)C(=O)NC2CCCC2)nc(NCC2CCCCC2)n1 | 858 |
| OCCc1ccc(Nc2nccc(-c3nnc4ccccn34)n2)cc1 | 901 |
| CC1(C)CC(NC(=O)NC2CCN(Cc3ccccc3)CC2)CC(C)(CNC(=O)NC2CCN(Cc3ccccc3)CC2)C1 (configuration not stated) | 946 |
| COc1ccc2nccc([C@@H](O)CN3CCC(NCc4nc5ccc(F)cc5[nH]4)CC3)c2c1 | 732 |
| CCn1c(-c2nonc2N)nc2c(-c3cccc(NC(=O)Nc4ccc5c(c4)CCC5)c3)ncc(OCCCN)c21 | 783 |
| CC(CCc1ccccc1)NCC(O)c1ccc2c3c(cccc13)C(=O)N2C (configuration not stated) | 812 |
| Oc1ccc2[nH]c(-c3cccc(F)c3)nc2c1CN1CCC(N2CCCC2)CC1 | 184 |
| COc1ccc2nccc([C@@H](O)CN3CCC(NCCOc4cc(F)cc(F)c4)CC3)c2c1 | 155 |
| O=S(=O)(Nc1cccc(CCN2CCC(N3CCCCC3)CC2)c1)c1cccc2ccccc12 | 937 |
| N#Cc1ccc(-c2ccc(C(=O)NCCCCN3CCC(c4ccncc4)CC3)cc2)cc1 | 813 |
| c1ccc(Oc2ccc(Nc3nc(NCCc4c[nH]cn4)nc(NC4CCCC4)n3)cc2)cc1 | 1030 |
| COC(=O)C1=CNC=C(C(=O)OC)C1c1ccc(Cl)c([N+](=O)[O-])c1 | 676 |
| Cc1nc(N)nc(N)c1OCCCCCCOc1ccccc1 | 235 |
| Cc1ccc(-c2nc3cc(C(=O)NC4CCC(N5CCCc6ccc(C#N)cc6C5)CC4)ccc3[nH]2)cc1 (configuration not stated) | 1360 |
| Clc1cccnc1N1CCN(c2ncccc2Cl)CC1 | 147 |
| CC(C)CCCC(C)(C)NC[C@@H](O)[C@H](Cc1ccccc1)NC(=O)c1cccc(CCC2CC2)c1 | 796 |
| COc1ccc(OC(C)CNC(=O)c2cc([N+](=O)[O-])ccc2-c2ccc(OC)cc2)cc1 (configuration not stated) | 1150 |
| FC(F)(F)c1ccc2c(NN=Cc3cccc(Cl)c3)ccnc2c1 | 838 |
| N#Cc1ccc2c(c1)CCN(CCC1CCC(NC(=O)c3cc4cccc(Cl)c4[nH]3)CC1)CC2 (configuration not stated) | 576 |
| COc1ccc2c(=O)c(I)c(C)[nH]c2c1 | 440 |
| CCN(CC)CCN(CCCc1ccc(-c2ccc(C(F)(F)F)cc2)cc1)C(=O)Cn1c(CCc2cccc(F)c2F)nc(=O)c2ccccc21 | 767 |
| COc1cccc(O)c1CNCC(O)c1cccc(C(F)(F)F)c1 (configuration not stated) | 945 |
| Cc1cc(Nc2nc(NCc3cccnc3)nc3ccccc23)n[nH]1 | 852 |
| COc1nc2c(N3CCN(CCNCc4ccc5c(n4)NC(=O)CO5)CC3)ccnc2cc1F | 758 |

| Structure (SMILES) | XC50 [nM] |
| --- | --- |
| CCNC(=O)c1ccc(-n2nc(C)cc2-c2ccccc2)cc1 | 1120 |
| CC1(C)CCC(C)(C)c2c1ccc(C1CCN(CCCCNC(=O)c3ccc(-c4ccc(C#N)cc4)cc3)CC1)c2O | 226 |
| CCOc1ccc2c(=NN=Cc3cccc(Cl)c3)cc(C)[nH]c2c1 | 864 |
| COc1ccccc1N(C)CCNc1cc(C)nc(Nc2ccccc2)n1 | 1070 |
| S=C(NCCc1ccc(Cl)cc1)NC1CCC(CN2CCC(c3c[nH]c4ccccc34)CC2)CC1 (configuration not stated) | 703 |
| COCCNCc1cccc(-c2cccc(CN(C(=O)Nc3ccccc3)C3CCN(Cc4ccccc4)CC3)c2)c1 | 126 |
| O=C(/C=C/c1ccc(Cl)c(Cl)c1)NCCCCCN1CC[C@H](NC(=O)c2ccc3c(c2)OCO3)C1 | 942 |
| N#Cc1ccc(N(CCOc2ccc(Cl)c(Cl)c2)Cc2ccccc2C(F)(F)F)cc1C(F)(F)F | 1110 |
| Nc1ccc2nc(C=Cc3ccccc3)[nH]c2c1 | 749 |
| CC(CN(C)C)C(=O)Nc1cccc(-c2ccc(-c3nc4cc(C(F)(F)F)ccc4[nH]3)cc2)c1 (configuration not stated) | 248 |
| Cc1cccc2nc(-c3ccc(-c4ccc(CN5CCC(C(N)=O)CC5)cc4)s3)[nH]c12 | 907 |
| c1ccc(CN2CCC(NCc3ccccc3-c3cccc(CNCc4ccc5c(c4)OCO5)c3)CC2)cc1 | 573 |
| c1ccc(CN2CCC(NCc3ccc(-c4ccc(CNCc5cccnc5)cn4)cc3)CC2)cc1 | 879 |
| CN1CCN(Cc2cccc(-c3cc4nccc(Nc5ccc(Oc6ccccc6)cc5)c4cc3Cl)c2)CC1 | 728 |
| COc1ccc(CSC2CCCCC23NC(=S)NC3=S)cc1 (configuration not stated) | 850 |
| CCCOc1ccccc1-c1nc2[nH]c3c(c2c(=O)[nH]1)CCN(C)C3 | 367 |
| O=C(Nc1cccc(C(F)(F)F)c1)Nc1ccc(F)c([N+](=O)[O-])c1 | 696 |
| COCCNCc1ccc(-c2ccc(CNC3CCN(Cc4ccccc4)CC3)cc2)cc1 | 669 |
| CC(C)OC(=O)c1ccccc1S(N)(=O)=O | 674 |
| O=C(Nc1cc(F)cc(F)c1)N[C@H]1CCN(CCCCCNC(=O)C2CC2c2ccc(Cl)c(Cl)c2)C1 (some centres not stated) | 1080 |
| CCC1CN(S(=O)(=O)c2ccc3c(c2)NC(=O)CC(=O)N3)c2cc(Cl)ccc2O1 (configuration not stated) | 656 |
| CC(C)c1sc(N2CCN(C)CC2)nc1C(=O)Nc1cccc2c1CCCC2 | 1280 |
| COc1cccc(Nc2nc(C)cc(NCc3ccc(-c4c(C)noc4C)cc3)n2)c1 | 880 |
| COc1ccc2ncc(F)c([C@@H](O)CN3CCC(NCc4cc5c(cn4)OCS5)CC3)c2c1 | 141 |

| Structure (SMILES) | XC50 [nM] |
| --- | --- |
| O=C(NCCc1ccc(Cl)c(Cl)c1)[C@@H]1CCCN1C(=O)c1ccc(O)c(-c2ccc(Cl)c(Cl)c2)c1 | 550 |
| O=C(Nc1cccc(CN2CCN(Cc3ccc(O)cc3)CC2)c1)c1cccc(C(F)(F)F)c1 | 1210 |
| COc1cc([N+](=O)[O-])ccc1NC(=O)c1cc(Cl)ccc1O | 1140 |
| O=C(Nc1ccc2c(c1)CCC2)c1cccc(CN2CCCN(Cc3cccc(O)c3)CC2)c1 | 1080 |
| CCn1c(CN2CCN(Cc3ccccc3)CC2)nc2cc(NC(=O)c3cccs3)ccc21 | 402 |
| O=C(Cc1cccc(O)c1)NCC(Cc1ccc(O)cc1)c1ccccc1 (configuration not stated) | 643 |
| CCOc1ccccc1C=CC(=O)Nc1ccc2nc(N3CCN(C)CC3)cc(C)c2c1 | 273 |
| N=C(NCCc1ccccc1Cl)c1ccc2ccccc2c1 | 1630 |
| O=C(CCN(Cc1ccco1)c1nc(-c2ccc(F)cc2)nc2ccccc12)NC1CC1 | 1580 |
| Brc1cnc(NC2=NCCN2)c(Br)c1 | 335 |
| CN1CCN(Cc2cccc(-c3ccc4c(Nc5cc(O)c(Cl)cc5F)ccnc4c3)c2)CC1 | 770 |
| O=C(Nc1ccc(Cl)c(Cl)c1)N[C@H]1CCN(CCCCCNC(=O)C2CC2c2ccc(Cl)c(Cl)c2)C1 (some centres not stated) | 1030 |
| COc1ccc(-c2cnc3ccc(N4CCCC4)nn23)cc1OC | 772 |
| N#Cc1ccc(N2CCN(Cc3ccc(-c4cccc(-c5nc6ccccc6[nH]5)c4)cc3)CC2)nc1 | 908 |
| CC(C)c1ccc(C=CC(=O)N2CCC(CCN3CCC(c4c[nH]c5ccccc45)CC3)CC2)cc1 | 1260 |
| O=S(=O)(Nc1cc2c(cc1OCCCN1CCCCC1)CCNCC2)c1ccc(-c2ccc(Cl)cc2)cc1 | 1000 |
| O=C(/C=C/c1ccc(Cl)c(Cl)c1)NC1CCC(CN2CCC(c3cc4ccccc4[nH]3)CC2)CC1 (configuration not stated) | 987 |
| COc1ccc2nc(C)cc(N/N=C/c3ccc([N+](=O)[O-])o3)c2c1 | 698 |
| CC(Cc1ccc(NC(=O)c2ccc(CNCc3ccccc3)cc2)cc1)N(CCc1cccc(Cl)c1)C(=O)OC(C)(C)C (configuration not stated) | 974 |
| O=C(OCc1ccccn1)c1nc2ccccc2[nH]1 | 793 |
| Cc1sc(C)c(CNCCCNc2cc(=O)c3ccccc3[nH]2)c1Br | 878 |
| N=c1sc2ccccc2n1CC(O)c1ccc(Cl)c(Cl)c1 (configuration not stated) | 800 |
| COc1cccc(CNC[C@@H](O)[C@H](Cc2ccccc2)NC(=O)c2cc(C3CCCC3)cc(N3CCCCS3(=O)=O)c2)c1 | 599 |
| O=C(Nc1nc2cc(S(=O)(=O)NCCCN3CCOCC3)ccc2n1CCCn1ccnc1)c1ccc(Cl)cc1 | 925 |
